# Numbers after ± are expanded uncertainties.
# What was measured:
# [1] = xn = mol fraction of the nth substance listed; conditions: for surface tension liquid-gas: Drop volume; for mass density: 101 kPa, Liquid
# [2] = refractive index (Na D-line) (dimensionless); φn = volume fraction of the nth substance listed; conditions: 101 kPa, Liquid, Standard Abbe refractometry
structure (smiles),measurement,setting,value
C1CCCC1 [cyclopentane] + C1COCCO1,surface tension liquid-gas,"[1]; 283.15 K, x2 = 0.0615",24.4 ± 0.3 mN/m
same,surface tension liquid-gas,"[1]; 283.15 K, x2 = 0.121",24.58 ± 0.3 mN/m
same,surface tension liquid-gas,"[1]; 283.15 K, x2 = 0.1824",24.76 ± 0.3 mN/m
same,surface tension liquid-gas,"[1]; 283.15 K, x2 = 0.2656",25.04 ± 0.3 mN/m
same,surface tension liquid-gas,"[1]; 283.15 K, x2 = 0.4058",25.63 ± 0.3 mN/m
same,surface tension liquid-gas,"[1]; 283.15 K, x2 = 0.5313",26.4 ± 0.3 mN/m
same,surface tension liquid-gas,"[1]; 283.15 K, x2 = 0.6376",27.35 ± 0.31 mN/m
same,surface tension liquid-gas,"[1]; 283.15 K, x2 = 0.7264",28.44 ± 0.32 mN/m
same,surface tension liquid-gas,"[1]; 283.15 K, x2 = 0.806",29.74 ± 0.33 mN/m
same,surface tension liquid-gas,"[1]; 283.15 K, x2 = 0.902",31.92 ± 0.35 mN/m
same,surface tension liquid-gas,"[1]; 283.15 K, x2 = 0.9642",33.79 ± 0.37 mN/m
same,mass density,"[1]; 283.15 K, x2 = 0.0516",766.94 ± 0.61 kg/m3
same,mass density,"[1]; 283.15 K, x2 = 0.095",777.38 ± 0.6 kg/m3
same,mass density,"[1]; 283.15 K, x2 = 0.1944",802.55 ± 0.55 kg/m3
same,mass density,"[1]; 283.15 K, x2 = 0.2987",830.28 ± 0.5 kg/m3
same,mass density,"[1]; 283.15 K, x2 = 0.3973",857.59 ± 0.45 kg/m3
same,mass density,"[1]; 283.15 K, x2 = 0.499",886.71 ± 0.39 kg/m3
same,mass density,"[1]; 283.15 K, x2 = 0.6003",916.64 ± 0.34 kg/m3
same,mass density,"[1]; 283.15 K, x2 = 0.7063",949.05 ± 0.28 kg/m3
same,mass density,"[1]; 283.15 K, x2 = 0.8072",980.93 ± 0.22 kg/m3
same,mass density,"[1]; 283.15 K, x2 = 0.9076",1013.82 ± 0.19 kg/m3
same,mass density,"[1]; 283.15 K, x2 = 0.9528",1029.04 ± 0.2 kg/m3
same,surface tension liquid-gas,"[1]; 298.15 K, x2 = 0.0615",22.37 ± 0.28 mN/m
same,surface tension liquid-gas,"[1]; 298.15 K, x2 = 0.121",22.56 ± 0.28 mN/m
same,surface tension liquid-gas,"[1]; 298.15 K, x2 = 0.1824",22.74 ± 0.28 mN/m
same,surface tension liquid-gas,"[1]; 298.15 K, x2 = 0.2656",23.01 ± 0.28 mN/m
same,surface tension liquid-gas,"[1]; 298.15 K, x2 = 0.4058",23.66 ± 0.28 mN/m
same,surface tension liquid-gas,"[1]; 298.15 K, x2 = 0.5313",24.56 ± 0.29 mN/m
same,surface tension liquid-gas,"[1]; 298.15 K, x2 = 0.6376",25.57 ± 0.29 mN/m
same,surface tension liquid-gas,"[1]; 298.15 K, x2 = 0.7264",26.68 ± 0.3 mN/m
same,surface tension liquid-gas,"[1]; 298.15 K, x2 = 0.806",27.93 ± 0.31 mN/m
same,surface tension liquid-gas,"[1]; 298.15 K, x2 = 0.902",30.03 ± 0.33 mN/m
same,surface tension liquid-gas,"[1]; 298.15 K, x2 = 0.9642",31.9 ± 0.35 mN/m
same,mass density,"[1]; 298.15 K, x2 = 0.0488",751.07 ± 0.63 kg/m3
same,mass density,"[1]; 298.15 K, x2 = 0.0945",762.02 ± 0.61 kg/m3
same,mass density,"[1]; 298.15 K, x2 = 0.1818",783.72 ± 0.57 kg/m3
same,mass density,"[1]; 298.15 K, x2 = 0.2983",814.38 ± 0.51 kg/m3
same,mass density,"[1]; 298.15 K, x2 = 0.3959",841.12 ± 0.47 kg/m3
same,mass density,"[1]; 298.15 K, x2 = 0.4962",869.6 ± 0.41 kg/m3
same,mass density,"[1]; 298.15 K, x2 = 0.6067",902 ± 0.35 kg/m3
same,mass density,"[1]; 298.15 K, x2 = 0.7034",931.45 ± 0.3 kg/m3
same,mass density,"[1]; 298.15 K, x2 = 0.811",965.2 ± 0.23 kg/m3
same,mass density,"[1]; 298.15 K, x2 = 0.9025",995.13 ± 0.18 kg/m3
same,mass density,"[1]; 298.15 K, x2 = 0.9506",1011.12 ± 0.17 kg/m3
same,surface tension liquid-gas,"[1]; 313.15 K, x2 = 0.0615",20.14 ± 0.25 mN/m
same,surface tension liquid-gas,"[1]; 313.15 K, x2 = 0.121",20.45 ± 0.25 mN/m
same,surface tension liquid-gas,"[1]; 313.15 K, x2 = 0.1824",20.77 ± 0.26 mN/m
same,surface tension liquid-gas,"[1]; 313.15 K, x2 = 0.2656",21.15 ± 0.26 mN/m
same,surface tension liquid-gas,"[1]; 313.15 K, x2 = 0.4058",21.83 ± 0.26 mN/m
same,surface tension liquid-gas,"[1]; 313.15 K, x2 = 0.5313",22.62 ± 0.27 mN/m
same,surface tension liquid-gas,"[1]; 313.15 K, x2 = 0.6376",23.59 ± 0.27 mN/m
same,surface tension liquid-gas,"[1]; 313.15 K, x2 = 0.7264",24.72 ± 0.28 mN/m
same,surface tension liquid-gas,"[1]; 313.15 K, x2 = 0.806",26.05 ± 0.3 mN/m
same,surface tension liquid-gas,"[1]; 313.15 K, x2 = 0.902",28.24 ± 0.32 mN/m
same,surface tension liquid-gas,"[1]; 313.15 K, x2 = 0.9642",30.03 ± 0.33 mN/m
same,mass density,"[1]; 313.15 K, x2 = 0.0449",734.98 ± 0.65 kg/m3
same,mass density,"[1]; 313.15 K, x2 = 0.094",746.73 ± 0.63 kg/m3
same,mass density,"[1]; 313.15 K, x2 = 0.195",771.73 ± 0.58 kg/m3
same,mass density,"[1]; 313.15 K, x2 = 0.2962",798.13 ± 0.53 kg/m3
same,mass density,"[1]; 313.15 K, x2 = 0.3969",825.52 ± 0.48 kg/m3
same,mass density,"[1]; 313.15 K, x2 = 0.4983",854.12 ± 0.43 kg/m3
same,mass density,"[1]; 313.15 K, x2 = 0.5994",883.66 ± 0.37 kg/m3
same,mass density,"[1]; 313.15 K, x2 = 0.6987",913.64 ± 0.32 kg/m3
same,mass density,"[1]; 313.15 K, x2 = 0.8026",946.08 ± 0.26 kg/m3
same,mass density,"[1]; 313.15 K, x2 = 0.9066",979.72 ± 0.19 kg/m3
same,mass density,"[1]; 313.15 K, x2 = 0.9482",993.49 ± 0.17 kg/m3
same,refractive index,"[2]; 283.15 K, φ2 = 0.0438",1.41192 ± 0.00036
same,refractive index,"[2]; 283.15 K, φ2 = 0.087",1.41201 ± 0.00036
same,refractive index,"[2]; 283.15 K, φ2 = 0.1787",1.41266 ± 0.00035
same,refractive index,"[2]; 283.15 K, φ2 = 0.2781",1.41381 ± 0.00034
same,refractive index,"[2]; 283.15 K, φ2 = 0.3694",1.41511 ± 0.00034
same,refractive index,"[2]; 283.15 K, φ2 = 0.4754",1.41686 ± 0.00033
same,refractive index,"[2]; 283.15 K, φ2 = 0.5928",1.41854 ± 0.00032
same,refractive index,"[2]; 283.15 K, φ2 = 0.7068",1.4208 ± 0.00032
same,refractive index,"[2]; 283.15 K, φ2 = 0.7975",1.42271 ± 0.00032
same,refractive index,"[2]; 283.15 K, φ2 = 0.9083",1.42517 ± 0.00031
same,refractive index,"[2]; 283.15 K, φ2 = 0.9568",1.42621 ± 0.00031
same,refractive index,"[2]; 298.15 K, φ2 = 0.0401",1.40332 ± 0.00036
same,refractive index,"[2]; 298.15 K, φ2 = 0.0979",1.40358 ± 0.00036
same,refractive index,"[2]; 298.15 K, φ2 = 0.1873",1.4043 ± 0.00035
same,refractive index,"[2]; 298.15 K, φ2 = 0.2827",1.40556 ± 0.00034
same,refractive index,"[2]; 298.15 K, φ2 = 0.3727",1.40698 ± 0.00034
same,refractive index,"[2]; 298.15 K, φ2 = 0.4709",1.40874 ± 0.00033
same,refractive index,"[2]; 298.15 K, φ2 = 0.5703",1.41064 ± 0.00032
same,refractive index,"[2]; 298.15 K, φ2 = 0.6847",1.41303 ± 0.00032
same,refractive index,"[2]; 298.15 K, φ2 = 0.785",1.41517 ± 0.00032
same,refractive index,"[2]; 298.15 K, φ2 = 0.8986",1.41772 ± 0.00031
same,refractive index,"[2]; 298.15 K, φ2 = 0.9436",1.41867 ± 0.00031
same,refractive index,"[2]; 313.15 K, φ2 = 0.0434",1.39455 ± 0.00036
same,refractive index,"[2]; 313.15 K, φ2 = 0.0858",1.39477 ± 0.00036
same,refractive index,"[2]; 313.15 K, φ2 = 0.181",1.3956 ± 0.00035
same,refractive index,"[2]; 313.15 K, φ2 = 0.2747",1.39691 ± 0.00034
same,refractive index,"[2]; 313.15 K, φ2 = 0.3702",1.3985 ± 0.00034
same,refractive index,"[2]; 313.15 K, φ2 = 0.472",1.40052 ± 0.00033
same,refractive index,"[2]; 313.15 K, φ2 = 0.5688",1.40259 ± 0.00032
same,refractive index,"[2]; 313.15 K, φ2 = 0.6767",1.40502 ± 0.00032
same,refractive index,"[2]; 313.15 K, φ2 = 0.7759",1.40729 ± 0.00032
same,refractive index,"[2]; 313.15 K, φ2 = 0.8977",1.41018 ± 0.00031
same,refractive index,"[2]; 313.15 K, φ2 = 0.933",1.41105 ± 0.00031
